Paper PMC7879702 (Antiviral research, 2020)

How the values were obtained:
[1] = test system: TAK1; settings: read-out: IC50, TAK1; cited from earlier work
[2] = test system: phospho-AP2M1 (T156); type: cell-based
[3] = biological target: AAK1; settings: at 10 μM; cited from earlier work
[4] = biological target: BIKE; settings: cited from earlier work
[5] = test system: DENV2; type: cell-based, dengue virus; settings: read-out: EC50, DENV2 infection
[6] = test system: ERK2; settings: read-out: IC50, ERK2; cited from earlier work
[7] = test system: primary human monocyte derived dendritic cells (MDDC)
[8] = test system: VEEV (TC-83); type: cell-based, Venezuelan equine encephalitis virus; settings: read-out: EC50, VEEV (TC-83) infection
[9] = biological target: GAK; settings: at 10 μM; cited from earlier work
[10] = test system: EBOV; type: cell-based, Ebola virus; settings: read-out: EC50, EBOV infection
[11] = test system: Huh7 cells
[12] = test system: DENV; type: cell-based, dengue virus; settings: read-out: EC50, DENV infection in MDDC
[13] = test system: DENV; type: cell-based; settings: BIKE-inducible T-REx-293 cells, doxycycline induction, 72 hours treatment
[14] = test system: DENV2; type: cell-based, dengue virus

Compound	IC50 [1] [nM]	effect on AP2M1 phosphorylation [2]	effect on phospho-AP2M1 level at 10 μM [2]	KINOMEscan binding, AAK1 [3]	KINOMEscan binding, BIKE ([4]; at 10 μM)	IC50 ([4]; read-out: IC50 value for BIKE inhibition or binding (Discussion)) [nM]	EC50 [5] [nM]	IC50 [6] [nM]	CC50 [7] [nM]	EC50 [8] [nM]	KINOMEscan binding, GAK [9]	EC50 [10] [nM]	cellular toxicity in the EBOV assay [11]	EC50 [12] [nM]	DENV infection upon BIKE expression in drug-treated cells [13]	effect on viral infection at 6 hours postinfection [14]
COc1cc(O)c2c(c1)/C=C/C[C@H](O)[C@H](O)C(=O)/C=C\C[C@H](C)OC2=O [5Z-7-oxozeaenol]	8	dramatic reduction in AP2M1 phosphorylation	significant reduction	13 % of control	3.8 % of control	3.8	2470	80	5490	2600	10 % of control	4090	no apparent cellular toxicity within the concentration range tested	540	partially restored	
C[C@@H]1C[C@@H]([C@H](O)CC2CC(=O)NC(=O)C2)C(=O)[C@@H](C)C1 [cycloheximide]																suppressed viral infection
